The record followed here is ChEMBL document CHEMBL5512688 (J Med Chem, 2024).

The subject of this experiment is A-427. As to the kind of experiment: Induction of apoptosis in human A-427 cells assessed as early apoptotic cells at 400 nM measured for 48 hrs by Annexin V/PI double staining based flow cytometry analysis (reference value: 1.96%). It is filed as functional.

As for `C=CCn1c(=O)c2cnc(Nc3ccc(N4CCN(C)CC4)cc3)nc2n1-c1cccc(-c2cnccn2)n1`, the Activity turned out to be 10.1%.
